Results: US20190117770A1, “USES OF IMMUNOCONJUGATES TARGETING CD138” (Biotest AG, priority 2011, published 2019)

Legend:
[1] = test system: primary mammary tumor of a patient; assay: Mammary carcinoma xenograft; format: in vivo, NMRI (nude) mice
[2] = literature; cited from earlier work
[3] = test system: MOLP8 multiple myeloma cells; assay: MOLP8 xenograft, combination BT062 and VELCADE; format: in vivo, mice
Source text: The ACTIVITY RATING is another measurement for the effects of a combination. This rating is based on the Log10 cell kill
where (T-C) or tumor growth delay, is the median time in days required for the treatment group (T) and the control group (C) tumours, to reach a predetermined size (600 mm^3).

[4] = Clinical trials of other immunoconjugates (literature); format: in vivo, human; conditions: assuming 70 kg and 1.9 m^2 body surface area
[5] = cited from earlier work
[6] = test system: human derived breast cancer model with CD138 IHC score 2-3; assay: Breast cancer model, CD138 IHC score 2-3; format: in vivo, NMRI nude mice; conditions: 10 mg/kg
Source text: The results are shown in terms of the effect on the mean relative tumor volume in the model relative to an intravenous administration of PBS. For the calculation of the median relative tumor volume on day, see FIG. 33.

[7] = test system: human derived breast cancer model with CD138 IHC score 1-2; assay: Breast cancer model, CD138 IHC score 1-2; format: in vivo, NMRI nude mice; conditions: 10 mg/kg
Source text: No difference in the treatment regimens was observed. The results are shown in terms of the effect on the mean relative tumor volume in the model relative to an intravenous administration of PBS. For the calculation of the median relative tumor volume on day, see FIG. 33.

primary pancreatic tumor = assay: Example 9 xenograft (FIG. 38); format: in vivo, NMRI (nude) mice; conditions: 10 mg/kg; treatment period and treatment free period
Source text: The results are shown in terms of the effect on the mean relative tumor volume.

RPMI 8226 = assay: Synergy determination in cell lines (Chou and Talalay); format: cell-based; conditions: drug in combination with BT062
Description: Combination studies in xenograph mouse models were preceded by studies in cell lines. […] Here, IC50 values for the cytotoxic effects for each drug and each cell line are calculated, and then IC50 ratios for each drug pair. The cells were then exposed to dilution series of either these drug mixtures, or the drugs alone. Experimental data were analyzed using the CompuSyn software (ComboSyn, Inc., Paramus, N.J.). Combination Indexes (CI) for each independent experiment were calculated and reported separately. In the analysis, CI less than 1, equal to 1 and more than 1 indicates synergy, additivity and antagonism, respectively. According to the classification of T. C.

CD138 expression = assay: Effect of lenalidomide on CD138 expressing cells in vitro; conditions: different cell lines, 24 h incubation (FIG. 32)

## CC(=O)O[C@H]1C(=O)[C@@]2(C)[C@H]([C@H](OC(=O)c3ccccc3)[C@]3(O)C[C@H](OC(=O)[C@H](O)[C@@H](NC(=O)c4ccccc4)c4ccccc4)C(C)=C1C3(C)C)[C@]1(OC(C)=O)CO[C@@H]1C[C@@H]2O [Taxol, Paclitaxel, reference compound]
[1]; 10 mg/kg
  tumor response: only a minor tumor growth delay

## COc1cc2cc(c1Cl)N(C)C(=O)C[C@H](OC(=O)[C@H](C)N(C)C(=O)CCS)[C@]1(C)O[C@H]1[C@H](C)[C@@H]1C[C@@](O)(NC(=O)O1)[C@H](OC)/C=C/C=C(\C)C2 [DM1, N^2-deacetyl-N^2-(3-mercapto-1-oxopropyl)-maytansine]
[2]
  cytotoxicity, fold more cytotoxic than maytansine: 3- to 10 fold

## COc1cc2cc(c1Cl)N(C)C(=O)C[C@H](OC(=O)[C@H](C)N(C)C(C)=O)[C@]1(C)O[C@H]1[C@H](C)[C@@H]1C[C@@](O)(NC(=O)O1)[C@H](OC)/C=C/C=C(\C)C2 [maytansine]
[2]
  cytotoxicity, fold higher than Vinca alkaloids or taxol: 200-1000 fold

## COc1cc2cc(c1Cl)N(C)C(=O)C[C@H](OC(=O)[C@H](C)N(C)C(=O)CCC(C)(C)S)[C@]1(C)O[C@H]1[C@H](C)[C@@H]1C[C@@](O)(NC(=O)O1)[C@H](OC)/C=C/C=C(\C)C2 [DM4, N^2′-deacetyl-N^2′-(4-methyl-4-mercapto-1-oxopentyl)-maytansine, reference compound]
[1]; amount corresponding to that in 4 mg BT062
  tumor response: did not result in tumor response

## CC(C)C[C@H](NC(=O)[C@H](Cc1ccccc1)NC(=O)c1cnccn1)B(O)O [Velcade, bortezomib, reference compound]
[3]; VELCADE treatment alone (FIG. 31)
  effect on the tumor volume: no effect
[3]; Velcade 1 mg/kg
  Tumor free survivors day 67: 0/6
  log cell kill: 0.0

## SAR3419
[4]
  Corresponds to total concentration of: 110 mg
[5]; 22 patients at the MTD (55 mg/m^2)
  patients with a response: 36%
[5]; 38 patients at 20 mg/m^2 or higher, weekly, B-cell NHL
  patients achieving an objective response: 32%
[5]; literature
  MTD, single administration every three weeks: 160 mg/m^2

## CC(=O)O[C@@]12CO[C@@H]1C[C@H](O)[C@@]1(C)C(=O)[C@H](O)C3=C(C)[C@@H](OC(=O)[C@H](O)[C@@H](NC(=O)OC(C)(C)C)c4ccccc4)C[C@@](O)([C@@H](OC(=O)c4ccccc4)[C@H]21)C3(C)C [Docetaxel, reference compound]
[6]
  tumor response: response
[7]
  tumor response: did not respond
Primary pancreatic tumor
  tumor response: complete remission

## Nc1cccc2c1CN(C1CCC(=O)NC1=O)C2=O (centres unmarked) [Lenalidomide]
RPMI 8226
  Estimate of synergistic result: Synergistic
CD138 expression
  CD138 expression: concentration dependent CD138 decrease

## SGN-35
[4]
  Corresponds to total concentration of: 84 mg
[5]; literature
  Once weekly regimen, dose administered: Up to 1.2 mg/kg

B1: SGN-75: anti-CD70; MMAF (SEATTLE GENETICS) (conjugate, chains of the INN, looked up)
VH: QVQLVQSGAEVKKPGASVKVSCKASGYTFTNYGMNWVRQAPGQGLKWMGWINTYTGEPTYADAFKGRVTMTRDTSISTAYMELSRLRSDDTAVYYCARDYGDYGMDYWGQGTTVTVSS
VL: DIVMTQSPDSLAVSLGERATINCRASKSVSTSGYSFMHWYQQKPGQPPKLLIYLASNLESGVPDRFSGSGSGTDFTLTISSLQAEDVAVYYCQHSREVPWTFGQGTKVEIK
modifications: MMAF conjugate
[5]; literature
  MTD, once weekly regimen: not been reached)

B2: IMGN242: analog of cantuzumab mertansine, huC242-DM4 (conjugate, chains of the INN, looked up)
VH: QVQLVQSGAEVKKPGETVKISCKASDYTFTYYGMNWVKQAPGQGLKWMGWIDTTTGEPTYAQKFQGRIAFSLETSASTAYLQIKSLKSEDTATYFCARRGPYNWYFDVWGQGTTVTVSS
VL: DIVMTQSPLSVPVTPGEPVSISCRSSKSLLHSNGNTYLYWFLQRPGQSPQLLIYRMSNLVSGVPDRFSGSGSGTAFTLRISRVEAEDVGVYYCLQHLEYPFTFGPGTKLELK
modifications: DM4 maytansinoid conjugate
[5]; 223 mg/m^2 once every 3 weeks, second cycle
  subjects experiencing dose-limiting toxicity: 2 of 6
